ChEMBL document CHEMBL1139533, “Structure-activity relationship studies of a series of antiviral and antibacterial aglycon derivatives of the glycopeptide antibiotics vancomycin, eremomycin, and dechloroeremomycin” (J Med Chem, 2005)
In brackets after ≈: the same amount, converted by molar mass.

Columns and labels:
[1] = system: Enterococcus faecalis; test: Minimum inhibitory concentration against 559 glycopeptide susceptible enterococci Enterococcus faecalis; format: functional
[2] = system: Human immunodeficiency virus 2; test: Effective concentration against human immunodeficiency virus type 2; format: functional, organism-based
[3] = system: L1210; test: Cytostatic activity against L1210 cell line; format: functional, cell-based; details: Mus musculus
[4] = system: Enterococcus faecium; test: Minimum inhibitory concentration against glycopeptide susceptible enterococci 568 Enterococcus faecium; format: functional
[5] = system: Moloney murine sarcoma virus; test: Effective concentration against Moloney sarcoma virus; format: functional, organism-based, Viruses
[6] = system: Staphylococcus haemolyticus; test: Minimum inhibitory concentration against 602 Staphylococcus haemolyticus; format: functional
[7] = system: Staphylococcus epidermidis; test: Minimum inhibitory concentration against 533 Staphylococcus epidermidis; format: functional
[8] = system: C3H/3T3; test: Minimal cytotoxic concentration to cause an alteration in C3H/3T3 cell line morphology; format: functional; details: Mus musculus
[9] = system: CCRF-CEM; test: Cytostatic activity to the compound against CEM cell line; format: functional, cell-based; details: Homo sapiens
[10] = system: MOLT-4; test: Cytostatic activity to the compound against Molt4/C8 cell line; format: functional, cell-based; details: Homo sapiens
[11] = system: Enterococcus faecalis; test: Minimum inhibitory concentration against glycopeptide resistant enterococci 560 Enterococcus faecalis; format: functional
[12] = system: Staphylococcus aureus; test: Minimum inhibitory concentration against glycopeptide intermediate-resistant 3798 Staphylococcus aureus; format: functional
[13] = system: Staphylococcus aureus; test: Minimum inhibitory concentration against glycopeptide intermediate-resistant 3797 Staphylococcus aureus; format: functional
[14] = system: Enterococcus faecium; test: Minimum inhibitory concentration against glycopeptide resistant enterococci 569 Enterococcus faecium; format: functional
[15] = system: Human immunodeficiency virus 1; test: Effective concentration against human immunodeficiency virus type 1; format: functional, organism-based

Structure (SMILES): NCCCCCCCCCCNC(=O)[C@H]1NC(=O)[C@H]2NC(=O)[C@H](NC(=O)[C@@H]3NC(=O)[C@H](CC(N)=O)NC(=O)[C@H](N)[C@H](O)c4ccc(c(Cl)c4)Oc4cc3cc(c4O)Oc3ccc(cc3Cl)[C@H]2O)c2ccc(O)c(c2)-c2c(O)cc(O)cc21
- MIC [1]: > 64 mg/L
- EC50 [2]: ≥ 25 µM
- IC50 [3]: > 250 µM
- MIC [4]: > 64 mg/L
- EC50 [5]: 9.3 µM
- MIC [6]: > 32 mg/L
- MIC [7]: > 32 mg/L
- MCC [8]: 100 µg/mL
- IC50 [9]: 139 µM
- IC50 [10]: ≥ 250 µM
- MIC [11]: > 64 mg/L
- MIC [12]: > 32 mg/L
- MIC [13]: > 32 mg/L
- MIC [14]: > 64 mg/L
- EC50 [15]: ≥ 25 µM

Structure (SMILES): NCCCCCCCCCCNC(=O)[C@H]1NC(=O)[C@H]2NC(=O)[C@H](NC(=O)[C@@H]3NC(=O)[C@H](CC(N)=O)NC(=O)[C@H](N)[C@H](O)c4ccc(c(Cl)c4)Oc4cc3cc(c4O)Oc3ccc(cc3)[C@H]2O)c2ccc(O)c(c2)-c2c(O)cc(O)cc21
- MIC [1]: > 64 mg/L
- EC50 [2]: ≥ 25 µM
- IC50 [3]: ≥ 250 µM
- MIC [4]: > 64 mg/L
- EC50 [5]: > 4 µM
- MIC [6]: > 32 mg/L
- MIC [7]: > 32 mg/L
- MCC [8]: 20 µg/mL
- IC50 [9]: 124 µM
- IC50 [10]: ≥ 250 µM
- MIC [11]: > 64 mg/L
- MIC [12]: > 32 mg/L
- MIC [13]: > 32 mg/L
- MIC [14]: > 64 mg/L
- EC50 [15]: ≥ 25 µM

Structure (SMILES): CN[C@H](CC(C)C)C(=O)N[C@H]1C(=O)N[C@@H](CC(N)=O)C(=O)N[C@H]2C(=O)N[C@H]3C(=O)N[C@H](C(=O)N[C@H](C(=O)NCCCCCCCCCCN)c4cc(O)cc(O)c4-c4cc3ccc4O)[C@H](O)c3ccc(cc3)Oc3cc2cc(c3O)Oc2ccc(cc2)[C@H]1O
- MIC [1]: 16 mg/L (≈ 13 µM)
- EC50 [2]: > 25 µM
- IC50 [3]: 146 µM
- MIC [4]: 8 mg/L (≈ 6.51 µM)
- EC50 [5]: 14 µM
- MIC [6]: 16 mg/L (≈ 13 µM)
- MIC [7]: 16 mg/L (≈ 13 µM)
- MCC [8]: 100 µg/mL
- IC50 [9]: 109 µM
- IC50 [10]: 106 µM
- MIC [11]: 32 mg/L (≈ 26 µM)
- MIC [12]: 16 mg/L (≈ 13 µM)
- MIC [13]: 16 mg/L (≈ 13 µM)
- MIC [14]: 64 mg/L (≈ 52.1 µM)
- EC50 [15]: 15 µM

Structure (SMILES): NC(=O)C[C@@H]1NC(=O)[C@H](N)[C@H](O)c2ccc(c(Cl)c2)Oc2cc3cc(c2O)Oc2ccc(cc2)[C@@H](O)[C@@H]2NC(=O)[C@H](NC(=O)[C@@H]3NC1=O)c1ccc(O)c(c1)-c1c(O)cc(O)cc1[C@@H](C(=O)NC1C3CC4CC(C3)CC1C4)NC2=O (stereo not given in full)
- MIC [1]: > 64 mg/L
- EC50 [2]: 50 µM
- IC50 [3]: > 250 µM
- MIC [4]: > 64 mg/L
- EC50 [5]: 22 µM
- MIC [6]: > 32 mg/L
- MIC [7]: > 32 mg/L
- MCC [8]: ≥ 100 µg/mL
- IC50 [9]: > 250 µM
- IC50 [10]: > 250 µM
- MIC [11]: > 64 mg/L
- MIC [12]: > 32 mg/L
- MIC [13]: > 32 mg/L
- MIC [14]: > 64 mg/L
- EC50 [15]: 50 µM

Structure (SMILES): CN[C@H](CC(C)C)C(=O)N[C@H]1C(=O)N[C@@H](CC(N)=O)C(=O)N[C@H]2C(=O)N[C@H]3C(=O)N[C@H](C(=O)N[C@H](C(=O)NCCCCCCCCCCN)c4cc(O)cc(O)c4-c4cc3ccc4O)[C@H](O)c3ccc(cc3)Oc3cc2cc(c3O)Oc2ccc(cc2Cl)[C@H]1O
- MIC [1]: 8 mg/L (≈ 6.33 µM)
- EC50 [2]: 25 µM
- IC50 [3]: ≥ 250 µM
- MIC [4]: 8 mg/L (≈ 6.33 µM)
- EC50 [5]: > 4 µM
- MIC [6]: 8 mg/L (≈ 6.33 µM)
- MIC [7]: 8 mg/L (≈ 6.33 µM)
- MCC [8]: 20 µg/mL
- IC50 [9]: 202 µM
- IC50 [10]: 196 µM
- MIC [11]: 32 mg/L (≈ 25.3 µM)
- MIC [12]: 8 mg/L (≈ 6.33 µM)
- MIC [13]: 8 mg/L (≈ 6.33 µM)
- MIC [14]: 32 mg/L (≈ 25.3 µM)
- EC50 [15]: 8.5 µM

Structure (SMILES): CN[C@H](CC(C)C)C(=O)N[C@H]1C(=O)N[C@@H](CC(N)=O)C(=O)N[C@H]2C(=O)N[C@H]3C(=O)N[C@H](C(=O)N[C@H](C(=O)NCC45CC6CC(CC(C6)C4)C5)c4cc(O)cc(O)c4-c4cc3ccc4O)[C@H](O)c3ccc(cc3)Oc3cc2cc(c3O)Oc2ccc(cc2Cl)[C@H]1O
- MIC [1]: 4 mg/L (≈ 3.18 µM)
- EC50 [2]: 7 µM
- IC50 [3]: 94 µM
- MIC [4]: 8 mg/L (≈ 6.37 µM)
- EC50 [5]: 12 µM
- MIC [6]: 8 mg/L (≈ 6.37 µM)
- MIC [7]: 8 mg/L (≈ 6.37 µM)
- MCC [8]: 100 µg/mL
- IC50 [9]: 148 µM
- IC50 [10]: 126 µM
- MIC [11]: 8 mg/L (≈ 6.37 µM)
- MIC [12]: 8 mg/L (≈ 6.37 µM)
- MIC [13]: 8 mg/L (≈ 6.37 µM)
- MIC [14]: 8 mg/L (≈ 6.37 µM)
- EC50 [15]: 1.6 µM

Structure (SMILES): NCCCCCCCCCCNC(=O)[C@H]1NC(=O)[C@H]2NC(=O)[C@H](NC(=O)[C@@H]3NC(=O)[C@H](CC(N)=O)NC(=O)[C@H](N)[C@H](O)c4ccc(cc4)Oc4cc3cc(c4O)Oc3ccc(cc3)[C@H]2O)c2ccc(O)c(c2)-c2c(O)cc(O)cc21
- MIC [1]: > 64 mg/L
- EC50 [2]: > 25 µM
- IC50 [3]: ≥ 250 µM
- MIC [4]: > 64 mg/L
- EC50 [5]: 7.8 µM
- MIC [6]: > 32 mg/L
- MIC [7]: > 32 mg/L
- MCC [8]: ≥ 20 µg/mL
- IC50 [9]: 106 µM
- IC50 [10]: 144 µM
- MIC [11]: > 64 mg/L
- MIC [12]: > 32 mg/L
- MIC [13]: > 32 mg/L
- MIC [14]: > 64 mg/L
- EC50 [15]: > 25 µM

Structure (SMILES): CN[C@H](CC(C)C)C(=O)N[C@H]1C(=O)N[C@@H](CC(N)=O)C(=O)N[C@H]2C(=O)N[C@H]3C(=O)N[C@H](C(=O)N[C@H](C(=O)O)c4cc(O)cc(O)c4-c4cc3ccc4O)[C@H](O)c3ccc(cc3)Oc3cc2cc(c3O)Oc2ccc(cc2)[C@H]1O
- MIC [1]: 32 mg/L (≈ 29.8 µM)
- EC50 [2]: > 125 µM
- IC50 [3]: > 250 µM
- MIC [4]: 32 mg/L (≈ 29.8 µM)
- EC50 [5]: ≥ 100 µM
- MIC [6]: > 32 mg/L
- MIC [7]: 32 mg/L (≈ 29.8 µM)
- MCC [8]: ≥ 100 µg/mL
- IC50 [9]: > 250 µM
- IC50 [10]: > 250 µM
- MIC [11]: > 64 mg/L
- MIC [12]: > 32 mg/L
- MIC [13]: > 32 mg/L
- MIC [14]: > 64 mg/L
- EC50 [15]: > 125 µM

Structure (SMILES): NC(=O)C[C@@H]1NC(=O)[C@H](N)[C@H](O)c2ccc(c(Cl)c2)Oc2cc3cc(c2O)Oc2ccc(cc2)[C@@H](O)[C@@H]2NC(=O)[C@H](NC(=O)[C@@H]3NC1=O)c1ccc(O)c(c1)-c1c(O)cc(O)cc1[C@@H](C(=O)O)NC2=O
- MIC [1]: > 128 mg/L
- EC50 [2]: > 250 µM
- IC50 [3]: > 250 µM
- MIC [4]: > 128 mg/L
- EC50 [5]: > 100 µM
- MIC [6]: > 128 mg/L
- MIC [7]: > 128 mg/L
- MCC [8]: ≥ 100 µg/mL
- IC50 [9]: > 250 µM
- IC50 [10]: > 250 µM
- MIC [11]: > 128 mg/L
- MIC [12]: > 128 mg/L
- MIC [13]: > 128 mg/L
- MIC [14]: > 128 mg/L
- EC50 [15]: 115 µM
